Patent publication US20150231276A1, “ROLE OF DH44 AND HOMOLOGS IN CALORIE SENSING” (New York University, priority 2014, published 2015)
Entries after “also recorded” stand apart in the source; their conditions may differ. Where two headings read alike, the source gives them in different places.

Key:
[1] = test system: Dh44+ cells; test: Ca2+ imaging (GCaMP3.0) of Dh44+ cell activity in response to sugars, ex vivo fly brains; assay type: cell-based, Drosophila melanogaster; settings: for peak amplitude, oscillation number and frequency of Dh44+ cells activation: non-metabolized sugar treatment; for activation of Dh44+ cells: perfusion of sugar, brains of PDh44 GAL4>UAS-GCaMP3.0 flies, D-glucose 5, 20, 80 mM
[2] = test system: Dh44+ cells; test: Ex vivo destaining experiment: Dh44 peptide release quantified by αDh44 immunofluorescence; assay type: cell-based, Drosophila melanogaster; settings: for release of the Dh44 peptide (amount of Dh44 peptide left inside Dh44+ cells): brains of 18 h-food deprived flies incubated in AHL + sugar 80 mM for 30′, compared with saline (AHL)
[3] = test system: CRH neurons in paraventricular nucleus (PVN); test: Whole-cell patch-clamp recordings of glucose sensing response in brain slices; assay type: cell-based, mice; parameters: Input R: unit not given here
Experimental: Whole-cell patch-clamp recordings from CRH neurons in paraventricular nucleus (PVN) slice preparation and data analysis were performed as previously described (ref).
Briefly, 3 to 5 week old of either male or female mice were anesthetized with isoflurane and transcardially perfused with a modified ice-cold artificial CSF (ACSF) in which NaCl was substituted with an equal molar concentration of sucrose (described below). Then, the mice was decapitated, and the entire brain was removed and then immediately immersed in ice-cold ACSF (220 mM sucrose, 2.5 mM KCl, 5.0 mM MgCl2, 1.0 mM CaCl2, 1.0 mM NaH2PO4, 26 mM NaHCO3, and 10 mM glucose), saturated with 95% O2 and 5% CO2. A brain block containing PVN was mounted on a stage and coronal sections (250 um) were cut with a Leica Vibratome. The sectioned slices were then incubated in oxygenated ACSF at 34° C. for at least 1 hour before recording. The slices were transferred into recording chamber and bathed in oxygenated ACSF. The solution flowing the recording chamber was consists of: (126 mM NaCl, 26 mM NaHCO3, 2.8 mM KCl, 2.5 mM CaCl2, 1.25 mM NaH2PO4, 1.2 mM MgSO4, and 5 mM or 2.5 mM glucose). The pipette solution for whole-cell recording was modified to include an intracellular dye (Alexa Fluor 488): 120 mM K-gluconate, 10 mM KCl, 10 mM HEPES, 5 mM EGTA, 1 mM CaCl2, 1 mM MgCl2, and 2 mM MgATP, 0.03 mM Alexa Fluor 488 dye, pH 7.3. Electrophysiological signals were recorded using an […] amplifier (Molecular Devices), low-pass filtered at 2-5 kHz, and analyzed offline on a PC with pCLAMP programs (Molecular Devices). Recording electrodes had resistances of 4.0-6.0 MΩ when filled with K-gluconate pipette solution.
As the cells to be targeted illuminate red fluorescence from td-tomato, the pipette with positive pressure was attached to cell membrane, which was subsequently giga-sealed by brief negative pressure, before making a tiny hole with more negative pressure to perform whole-cell recordings. Only cells with a whole-cell resistance below 15 MΩ and with a stable resting membrane potential within 1 min were selected and carried out recording. […] At the end of a stable trace, its input resistance was assessed by measuring the voltage deflection to hyperpolarizing rectangular current pulse steps (500 ms of −10 to −50 pA). […] Depending on the cells, it took 1-5 min to change the membrane potential and firing rate. After stabilizing the change in electrophysiological response, input resistance was assessed in the same way as previously described. […] (For most CRH neurons as GE neurons, it took more than 10 min to recover after the response.)

[4] = Table 2, glucose back to 2.5 mM

O=C[C@@H](O)[C@H](O)[C@@H](O)[C@@H](O)CO [L-glucose]
peak amplitude, oscillation number and frequency of Dh44+ cells activation [1]: greatly reduced or nearly abolished | activation of Dh44+ cells [1]: small increase in activity that lacked oscillations | release of the Dh44 peptide (amount of Dh44 peptide left inside Dh44+ cells) [2]: did not result in the release; also recorded: did not induce

O=C(CO)[C@@H](O)[C@H](O)[C@H](O)CO [D-fructose]
activation of Dh44+ cells [1]: robustly activated | activation of Dh44+ cells ([1]; listed as fructose): robust and persistent activation

O=C1NC(=O)C(=O)C(=O)N1 [Alloxan]
oscillations of Dh44+ cells ([1]; D-glucose + Alloxan perfusion): almost complete disappearance | peak amplitude of activation of Dh44+ cells ([1]; D-glucose + Alloxan perfusion): dramatic decrease | effect on D-glucose-mediated activity (Ca++ influx) of Dh44+ cells ([1]; agent added to the D-glucose solution, Alloxan 4 μM): greatly suppressed | effect on D-glucose-induced Dh44 neuropeptide release ([2]; agent together with D-glucose, ex vivo): did not result in the release; also recorded: reduction

OC[C@H]1O[C@H](O[C@H]2O[C@H](CO)[C@@H](O)[C@H](O)[C@H]2O)[C@H](O)[C@@H](O)[C@@H]1O [trehalose]
activation of Dh44+ cells [1]: robust and persistent activation; also recorded: robustly activated

O=CC[C@@H](O)[C@H](O)[C@H](O)CO [2DG, 2-deoxy-D-glucose]
peak amplitude, oscillation number and frequency of Dh44+ cells activation [1]: greatly reduced or nearly abolished | activation of Dh44+ cells [1]: small increase in activity that lacked oscillations | release of the Dh44 peptide (amount of Dh44 peptide left inside Dh44+ cells) [2]: did not result in the release | release of the Dh44 peptide (amount of Dh44 peptide left inside Dh44+ cells) ([2]; listed as D-2′-deoxy-glucose): did not induce

O=C[C@H](O)[C@@H](O)[C@H](O)[C@H](O)CO [D-glucose]
activation of Dh44+ cells [1]: robust and persistent activation; also recorded: robustly activated | f ([3]; Table 1 (FIGS. 10A-10B), glucose 5 mM, first): 0.64 HZ | Input R ([3]; Table 1, glucose 2.5 mM): 1.25 | RMP ([3]; Table 1, glucose 2.5 mM): −65.8874 mV | f ([3]; Table 1, glucose 2.5 mM): 0.02 HZ | Input R ([3]; Table 1, glucose 5 mM): 1.40 | Rev P ([3]; Table 1, glucose 5 mM to 2.5 mM): −222.95 mV | RMP ([3]; Table 1, glucose 5 mM, first): −49.5691 mV | RMP ([3]; Table 1, glucose back to 5 mM): −57.9124 mV | f ([3]; Table 1, glucose back to 5 mM): 0.65 HZ | Rev P ([3]; Table 2): −169 mV | f ([3]; Table 2 (FIGS. 11A-11B), glucose 2.5 mM, first): 0.64 HZ | Input R ([3]; Table 2, column headed glucose 2.5 mM): 2.66 | Input R ([3]; Table 2, column headed glucose 5 mM): 2.82 | RMP ([3]; Table 2, glucose 2.5 mM, first): −60.5911 mV | RMP ([3]; Table 2, glucose 5 mM): −52.4561 mV | f ([3]; Table 2, glucose 5 mM): 0.02 HZ | RMP [3, 4]: −59.3806 mV | f [3, 4]: 0.65 HZ | time to change the membrane potential and firing rate ([3]; after recording solution changed from 5 mM to 2.5 mM glucose): 1 to 5 min | electrical activity of the CRH neurons ([3]; glucose changed from 2.5 mM to 5 mM): increased | electrical activity of the CRH neurons ([3]; glucose changed from 5 mM to 2.5 mM): decreased | time to recover after the response ([3]; recording solution changed back to 5 mM glucose, most CRH neurons): more than 10 min

NC1=N[C@H](O)[C@H]2[C@H]3O[C@]4(O)O[C@@H]([C@@H](O)[C@@]2(N1)[C@@H]4O)[C@]3(O)CO [TTX, Tetrodotoxin]
effect on D-glucose-mediated activity (Ca++ influx) of Dh44+ cells [1]: small but non-significant effect; also recorded: small but nonsignificant effect | effect on D-glucose-induced Dh44 neuropeptide release [2]: did not affect
